Test results from patent US20170137824A1, “NEW TREATMENT AGAINST INFLUENZA VIRUS” (priority 2014, published 2017).
Residues, ends and D or L forms follow the SMILES beside them. *: point of attachment. Cbz = O=C(OCc1ccccc1)*

Legend:
X31 strain of IAV [1] = test: Acid-bypass uncoating assay (fusion at the plasma membrane); type: cell-based, Influenza A X31 virus strain (H3N2); details: for uncoating blocked/decreased by % following PM bypass: percent reduction of uncoating; for block of uncoating by type II myosin inhibitors: after acid-bypass at the PM (context)
X31 strain of IAV [2] = test: Uncoating after endocytosis and fusion at LEs (ammonium chloride block and washout, drugs added 60 min post-uptake); type: cell-based, Influenza A X31 virus strain (H3N2); details: drug added 60 min post-uptake, kept during 60 min uncoating

COC(=O)Nc1nc2ccc(C(=O)c3cccs3)cc2[nH]1 [nocodazole]
uncoating blocked/decreased by % following PM bypass (X31 strain of IAV [1]): 35%

O=S(=O)(c1cccc2c(Cl)cccc12)N1CCCNCC1 [ML-9]
block of uncoating by type II myosin inhibitors (X31 strain of IAV [1]): more than half

C=C1[C@@H](C)[C@H]2[C@H](Cc3ccccc3)NC(=O)[C@]23[C@H](OC(C)=O)/C=C/[C@@](C)(O)C(=O)[C@@H](C)C/C=C/[C@H]3[C@@H]1O [cytochalasin D]
uncoating blocked/decreased by % following PM bypass (X31 strain of IAV [1]): 83%

CC(Nc1nc(N2CCCC2)nc2ccccc12)c1ccccc1 (stereo not drawn) [importazole]
effect on uncoating when IAV fuses at the LEs (X31 strain of IAV [2]): no significant effect

Cc1ccc2c(c1)C(=O)C1(O)CCN(c3ccccc3)C1=N2 (stereo not drawn) [blebbistatin]
block of uncoating by type II myosin inhibitors (X31 strain of IAV [1]): more than half

N#CC(=C(O)c1ccc(Cl)cc1Cl)c1nc2cc(Cl)ccc2c(=O)[nH]1 [ciliobrevin D]
uncoating following acid-bypass at the PM, reduced to % of control (X31 strain of IAV [1]; remaining uncoating relative to control, siRNA experiments in A549 cells): 62%

CC(C)C[C@@H](C=O)NC(=O)[C@H](CC(C)C)NC(=O)[C@H](CC(C)C)NC(=O)OCc1ccccc1 [MG132] (Cbz-Leu-Leu-Leu-aldehyde)
effect on uncoating when IAV fuses at the LEs (X31 strain of IAV [2]): no significant effect

B1: HDAC6 (Dbm), mouse HDAC6 without the dynein-binding domain (del437-481), expressed in rescued HDAC6 KO MEFs (protein)
chain: MTSTGQDSSTRQRKSRHNPQSPLQESSATLKRGGKKCAVPHSSPNLAEVKKKGKMKKLSQPAEEDLVVGLQGLDLNPETRVPVGTGLVFDEQLNDFHCLWDDSFPESPERLHAIREQLILEGLLGRCVSFQARFAEKEELMLVHSLEYIDLMETTQYMNEGELRVLAETYDSVYLHPNSYSCACLATGSVLRLVDALMGAEIRNGMAVIRPPGHHAQHNLMDGYCMFNHLAVAARYAQKKHRIQRVLIVDWDVHHGQGTQFIFDQDPSVLYFSIHRYEHGRFWPHLKASNWSTIGFGQGQGYTINVPWNQTGMRDADYIAAFLHILLPVASEFQPQLVLVAAGFDALHGDPKGEMAATPAGFAHLTHLLMGLAGGKLILSLEGGYNLRALAKGVSASLHTLLGDPCPMLESCVVPCASAQTSIYCTLEALEPFWEVLVYDEKMMSHCNLWDNHHPETPQRILRIMCHLEEVGLAARCLILPARPALDSELLTCHSAEYVEHLRTTEKMKTRDLHREGANFDSIYICPSTFACAKLATGAACRLVEAVLSGEVLNGIAVVRPPGHHAEPNAACGFCFFNSVAVAARHAQIIAGRALRILIVDWDVHHGNGTQHIFEDDPSVLYVSLHRYDRGTFFPMGDEGASSQVGRDAGIGFTVNVPWNGPRMGDADYLAAWHRLVLPIAYEFNPELVLISAGFDAAQGDPLGGCQVTPEGYAHLTHLLMGLAGGRIILILEGGYNLASISESMAACTHSLLGDPPPQLTLLRPPQSGALVSISEVIQVHRKYWRSLRLMKMEDKEECSSSRLVIKKLPPTASPVSAKEMTTPKGKVPEESVRKTIAALPGKESTLGQAKSKMAKAVLAQGQSSEQAAKGTTLDLATSKETVGGATTDLWASAAAPENFPNQTTSVEALGETEPTPPASHTNKQTTGASPLQGVTAQQSLQLGVLSTLELSREAEEAHDSEEGLLGEAAGGQDMNSLMLTQGFGDFNTQDVFYAVTPLSWCPHLMAVCPIPAAGLDVSQPCKTCGTVQENWVCLTCYQVYCSRYVNAHMVCHHEASEHPLVLSCVDLSTWCYVCQAYVHHEDLQDVKNAAHQNKFGEDMPHSH
uncoating using PM bypass, relative to WT MEFs (dynein): uncoating in the HDAC6 (Db^m) cells was reduced to 58%% of WT MEFs
uncoating when the virus was allowed to fuse at LEs, compared to WT MEFs (dynein): uncoating was reduced to 67% in HDAC6 (Db^m) cells compared to WT MEFs
